Some test systems named below: SK-MEL-5 melanoma; U251 CNS; M14 melanoma; MCF7 breast; CCRF-CEM leukemia; RPMI-8226 leukemia; NCI-H522 lung; NCI-H226 lung; HS 578T breast; HOP-92 NSCLC; SNB-75 CNS; UACC-62 melanoma; K-562 leukemia; OVCAR-8 ovarian; A498 renal; HL-60(TB) leukemia; NCI-H460 lung; IGROV1 ovarian; MDA-MB-231 breast.
Common to all, as to assay: DTP human tumour cell line panel, 48 h

These results are taken from PubChem BioAssay (NCI).

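Briefly, cells in 96-well plates were exposed to five compound concentrations for 48 h, and endpoints were estimated by linear interpolation. The concentration for full growth arrest is given as TGI.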 Some results are limits rather than exact numbers.

With `CC1(C)N=C(N)N=C(N)N1CCCCc1ccccc1`, the TGI (usually the concentration at which net growth stops) in the assay with SK-MEL-5 melanoma is 12.5 µM; with U251 CNS it was more than 100 µM; in the assay with M14 melanoma, more than 100 µM; with MCF7 breast it was more than 100 µM; in the assay on CCRF-CEM leukemia, more than 100 µM; with RPMI-8226 leukemia it was more than 93.9 µM. The TGI with NCI-H522 lung was 37.4 µM; with NCI-H226 lung, more than 83 µM; in the assay on HS 578T breast, more than 81.9 µM; in the assay on HOP-92 NSCLC it was more than 100 µM; with SNB-75 CNS it was 97.6 µM; with UACC-62 melanoma, more than 100 µM. For the same molecule, the total growth inhibition concentration (TGI) was more than 100 µM with K-562 leukemia; more than 100 µM with OVCAR-8 ovarian; more than 100 µM in the assay on A498 renal; more than 31.1 µM with HL-60(TB) leukemia; more than 100 µM with NCI-H460 lung; more than 100 µM in the assay with IGROV1 ovarian. This molecule had a TGI with MDA-MB-231 breast of more than 100 µM.

For `NNC(=O)CSc1nnc(CCCCCCCCc2nnc(SCC(=O)NN)o2)o1`, the TGI in the assay with SK-MEL-5 melanoma, in the assay with U251 CNS, in the assay on M14 melanoma, in the assay on MCF7 breast, in the assay with CCRF-CEM leukemia and with RPMI-8226 leukemia was more than 100 µM throughout. Also, the concentration for total growth inhibition (TGI) with NCI-H522 lung, in the assay on NCI-H226 lung, in the assay with HS 578T breast, with HOP-92 NSCLC, in the assay on SNB-75 CNS and in the assay with UACC-62 melanoma was more than 100 µM in each case. For the same molecule, the TGI in the assay on K-562 leukemia, in the assay with OVCAR-8 ovarian, in the assay on A498 renal, in the assay on HL-60(TB) leukemia, in the assay on NCI-H460 lung and in the assay with IGROV1 ovarian was more than 100 µM each time. The molecule also returned a TGI in the assay with MDA-MB-231 breast of more than 100 µM.

Take `COC(=O)C(=O)C(C(=O)C(=O)Nc1nc(=S)[nH][nH]1)c1nc2ccc([N+](=O)[O-])cc2[nH]c1=O` (stereo unspecified): the total growth inhibition concentration (TGI) in the assay with SK-MEL-5 melanoma, in the assay on U251 CNS, in the assay with M14 melanoma, in the assay on MCF7 breast, in the assay with CCRF-CEM leukemia and in the assay with RPMI-8226 leukemia was more than 100 µM each time. Also, the TGI in the assay with NCI-H522 lung, in the assay on NCI-H226 lung, in the assay on HS 578T breast, with HOP-92 NSCLC, in the assay on SNB-75 CNS and in the assay with UACC-62 melanoma was more than 100 µM in each case. In addition, the TGI in the assay with K-562 leukemia, in the assay with OVCAR-8 ovarian, in the assay with A498 renal, in the assay on HL-60(TB) leukemia, in the assay with NCI-H460 lung and with IGROV1 ovarian was more than 100 µM throughout. In the assay with MDA-MB-231 breast, this molecule yielded a TGI of more than 100 µM.

In the case of `CC(=O)NC1=CC(=O)C=C(Cl)C1=O`, the TGI in the assay on SK-MEL-5 melanoma is more than 100 µM; in the assay with U251 CNS, more than 100 µM; with M14 melanoma, more than 100 µM; with MCF7 breast, 82.4 µM; with CCRF-CEM leukemia it was 57.8 µM; with RPMI-8226 leukemia, 52.1 µM. The TGI in the assay on NCI-H522 lung is 84 µM; in the assay on NCI-H226 lung it was more than 100 µM; in the assay with HS 578T breast, more than 100 µM; with HOP-92 NSCLC, more than 100 µM; with SNB-75 CNS, more than 100 µM; in the assay on UACC-62 melanoma it was more than 100 µM. For the same molecule, the TGI in the assay on K-562 leukemia was 93.6 µM; in the assay on OVCAR-8 ovarian, more than 100 µM; in the assay with A498 renal, more than 100 µM; with HL-60(TB) leukemia it was 45.7 µM; in the assay with NCI-H460 lung it was more than 100 µM; with IGROV1 ovarian, more than 100 µM. The same molecule came in with a TGI with MDA-MB-231 breast of more than 100 µM.

Turning to `S=c1sscc1N1CCSc2ssc(=S)c21`, the TGI in the assay on SK-MEL-5 melanoma is more than 100 µM; in the assay on U251 CNS, 38.2 µM; in the assay with M14 melanoma, more than 100 µM; in the assay with MCF7 breast, more than 100 µM; in the assay with CCRF-CEM leukemia it was more than 100 µM; with RPMI-8226 leukemia, more than 100 µM. The TGI was 59.7 µM with NCI-H522 lung; more than 100 µM with NCI-H226 lung; more than 100 µM in the assay on HS 578T breast; 31 µM with HOP-92 NSCLC; 43.5 µM in the assay on SNB-75 CNS; more than 100 µM in the assay on UACC-62 melanoma. In addition, the concentration for total growth inhibition (TGI) in the assay on K-562 leukemia was more than 100 µM; in the assay with OVCAR-8 ovarian it was 18.9 µM; with A498 renal, 77.4 µM; with HL-60(TB) leukemia it was more than 100 µM; in the assay on NCI-H460 lung it was more than 100 µM; in the assay on IGROV1 ovarian, more than 100 µM. Moreover, in the assay with MDA-MB-231 breast, the TGI was more than 100 µM.

Turning to `CC(=O)Nc1ccc2c3c(cc(O)c2c1)N(C(=O)CCCCCC(=O)Nc1ccc2c4c(cc(O)c2c1)N(C(=O)OC(C)(C)C)CC4CCl)CC3CCl` (stereo unspecified), the TGI with SK-MEL-5 melanoma was 2.98 µM; with U251 CNS, 6.75 µM; in the assay with M14 melanoma it was 20.5 µM; in the assay on MCF7 breast, more than 35.5 µM; in the assay on CCRF-CEM leukemia, 0.648 µM; in the assay on RPMI-8226 leukemia it was more than 34.6 µM. The TGI in the assay with NCI-H522 lung was 5.78 µM; with NCI-H226 lung, 9.56 µM; with HS 578T breast it was more than 26.9 µM; in the assay on HOP-92 NSCLC, 23.7 µM; with SNB-75 CNS, 5.22 µM; with UACC-62 melanoma, 3.87 µM. For the same molecule, the TGI is more than 100 µM in the assay on K-562 leukemia; 15.2 µM with OVCAR-8 ovarian; 5.31 µM with A498 renal; more than 36.1 µM in the assay on HL-60(TB) leukemia; more than 21.2 µM in the assay on NCI-H460 lung; 28.5 µM in the assay on IGROV1 ovarian. Besides, the TGI in the assay on MDA-MB-231 breast was found to be 18.5 µM.

Consider `Cc1ccc2nnc(NS(=O)(=O)c3cc(C)c(Cl)cc3S)n2n1`, for which the TGI with SK-MEL-5 melanoma, in the assay with U251 CNS, in the assay with M14 melanoma, in the assay with MCF7 breast, with CCRF-CEM leukemia and with RPMI-8226 leukemia was more than 100 µM each time. For the same molecule, the TGI in the assay on NCI-H522 lung, in the assay on NCI-H226 lung, with HS 578T breast, in the assay with HOP-92 NSCLC, in the assay on SNB-75 CNS and in the assay on UACC-62 melanoma was more than 100 µM each time. The TGI in the assay with K-562 leukemia, in the assay with OVCAR-8 ovarian, in the assay with A498 renal, with HL-60(TB) leukemia, with NCI-H460 lung and in the assay with IGROV1 ovarian was more than 100 µM throughout. The TGI in the assay with MDA-MB-231 breast is more than 100 µM.

As for `Cc1c(C=C(C#N)C#N)c(=O)n(C)c(=O)n1C`, the TGI with SK-MEL-5 melanoma was more than 100 µM; with U251 CNS, more than 100 µM; with M14 melanoma, more than 100 µM; in the assay with MCF7 breast, more than 100 µM; with CCRF-CEM leukemia, 94.8 µM; in the assay on RPMI-8226 leukemia, more than 100 µM. Besides, the TGI in the assay on NCI-H522 lung, with NCI-H226 lung, with HS 578T breast, with HOP-92 NSCLC, with SNB-75 CNS and in the assay on UACC-62 melanoma was more than 100 µM in each case. The TGI in the assay on K-562 leukemia, with OVCAR-8 ovarian, in the assay with A498 renal, with HL-60(TB) leukemia, with NCI-H460 lung and in the assay on IGROV1 ovarian was more than 100 µM in each case. Further, the TGI in the assay on MDA-MB-231 breast is more than 100 µM.

For `C/C(CC(O)(C(F)(F)F)C(F)(F)F)=N/Nc1ccc([N+](=O)[O-])cc1[N+](=O)[O-]`, the TGI was 4 µM in the assay on SK-MEL-5 melanoma; more than 10 µM in the assay on U251 CNS; more than 10 µM in the assay on M14 melanoma; more than 10 µM in the assay with MCF7 breast; more than 10 µM in the assay on CCRF-CEM leukemia; 5.91 µM in the assay on RPMI-8226 leukemia. The TGI was more than 10 µM in the assay with NCI-H522 lung; 6.66 µM in the assay with NCI-H226 lung; 7.85 µM in the assay on HS 578T breast; 4.7 µM in the assay on HOP-92 NSCLC; more than 10 µM in the assay with SNB-75 CNS; more than 10 µM in the assay with UACC-62 melanoma. In addition, the TGI was 9.56 µM with K-562 leukemia; more than 10 µM in the assay with OVCAR-8 ovarian; 8.37 µM in the assay on A498 renal; 7.94 µM in the assay with HL-60(TB) leukemia; more than 10 µM with NCI-H460 lung; more than 10 µM with IGROV1 ovarian. The molecule further displayed a TGI with MDA-MB-231 breast of 6.58 µM.
